Test results from the kinase profiling compilation of Christmann-Franck et al. (2016).

Columns and labels:
Assay in all cases: KINOMEscan competition binding
Conditions in all cases: compound 10.0 µM
[1] = molecular target: BRAF (human) (UniProt P15056)
[2] = molecular target: LATS1 (human) (UniProt O95835)
[3] = molecular target: PHKG1 (human) (UniProt Q16816)
[4] = molecular target: RPS6KA6 KD2 (human) (UniProt Q9UK32)
[5] = molecular target: AKT3 (human) (UniProt Q9Y243)
[6] = molecular target: ACVRL1 (human) (UniProt P37023)
[7] = molecular target: MAP2K4 (human) (UniProt P45985)
[8] = molecular target: CDC42BPA (human) (UniProt Q5VT25)
[9] = molecular target: PIK3C2B (human) (UniProt O00750)
PIK3C2B (human), sequence (O00750 whole entry, looked up): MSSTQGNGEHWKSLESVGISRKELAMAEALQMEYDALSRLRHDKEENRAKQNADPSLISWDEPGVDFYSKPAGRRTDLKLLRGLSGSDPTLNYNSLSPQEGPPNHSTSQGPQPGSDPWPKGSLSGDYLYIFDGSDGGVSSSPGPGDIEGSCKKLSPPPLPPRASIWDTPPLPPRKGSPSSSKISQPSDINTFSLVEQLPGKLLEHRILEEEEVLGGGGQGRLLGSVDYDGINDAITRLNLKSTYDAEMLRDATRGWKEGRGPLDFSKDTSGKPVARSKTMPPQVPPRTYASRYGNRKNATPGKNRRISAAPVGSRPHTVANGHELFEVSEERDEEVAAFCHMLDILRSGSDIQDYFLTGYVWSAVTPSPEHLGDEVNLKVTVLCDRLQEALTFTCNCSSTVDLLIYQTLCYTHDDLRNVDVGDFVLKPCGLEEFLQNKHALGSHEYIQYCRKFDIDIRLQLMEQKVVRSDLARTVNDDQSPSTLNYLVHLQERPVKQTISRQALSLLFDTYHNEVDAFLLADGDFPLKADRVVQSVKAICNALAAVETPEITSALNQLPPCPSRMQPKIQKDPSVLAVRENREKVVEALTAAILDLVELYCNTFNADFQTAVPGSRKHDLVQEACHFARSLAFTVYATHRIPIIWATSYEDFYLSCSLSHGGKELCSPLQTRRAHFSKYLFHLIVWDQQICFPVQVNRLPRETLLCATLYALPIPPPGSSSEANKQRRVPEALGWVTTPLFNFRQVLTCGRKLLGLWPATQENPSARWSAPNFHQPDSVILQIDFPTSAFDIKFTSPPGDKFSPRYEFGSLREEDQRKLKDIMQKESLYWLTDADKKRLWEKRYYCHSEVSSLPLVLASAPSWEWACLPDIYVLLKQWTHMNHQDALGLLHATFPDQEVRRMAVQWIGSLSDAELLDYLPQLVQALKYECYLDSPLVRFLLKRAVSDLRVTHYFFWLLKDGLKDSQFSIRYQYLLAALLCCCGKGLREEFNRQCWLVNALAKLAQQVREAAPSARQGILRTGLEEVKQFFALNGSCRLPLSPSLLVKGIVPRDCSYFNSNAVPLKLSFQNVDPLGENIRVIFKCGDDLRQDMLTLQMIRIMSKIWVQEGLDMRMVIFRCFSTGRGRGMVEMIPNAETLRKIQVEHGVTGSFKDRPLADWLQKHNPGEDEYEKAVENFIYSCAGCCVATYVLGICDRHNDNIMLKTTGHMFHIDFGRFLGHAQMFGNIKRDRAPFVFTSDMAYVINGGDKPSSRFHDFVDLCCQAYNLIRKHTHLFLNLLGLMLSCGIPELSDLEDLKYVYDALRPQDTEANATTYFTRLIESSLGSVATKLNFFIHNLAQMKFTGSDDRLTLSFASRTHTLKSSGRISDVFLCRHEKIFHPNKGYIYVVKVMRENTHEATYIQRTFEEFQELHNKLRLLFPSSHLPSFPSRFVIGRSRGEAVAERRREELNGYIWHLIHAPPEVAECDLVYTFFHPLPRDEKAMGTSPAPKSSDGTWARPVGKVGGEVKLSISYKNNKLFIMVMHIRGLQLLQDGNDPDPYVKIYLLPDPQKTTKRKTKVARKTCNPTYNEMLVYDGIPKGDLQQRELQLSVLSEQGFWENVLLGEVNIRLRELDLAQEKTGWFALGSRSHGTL

[10] = molecular target: ULK2 (human) (UniProt Q8IYT8)
[11] = molecular target: ULK1 (human) (UniProt O75385)
[12] = molecular target: NUAK2 (human) (UniProt Q9H093)
[13] = molecular target: TNNI3K (human) (UniProt Q59H18)
[14] = molecular target: STK32C (human) (UniProt Q86UX6)
[15] = molecular target: ABL2 (human) (UniProt P42684)
[16] = molecular target: DCLK3 (human) (UniProt Q9C098)
[17] = molecular target: EPHA7 (human) (UniProt Q15375)
[18] = molecular target: PKMYT1 (human) (UniProt Q99640)
[19] = molecular target: MAP3K11 (human) (UniProt Q16584)
[20] = molecular target: PDGFRB (human) (UniProt P09619)
PDGFRB (human), sequence (P09619 whole entry, looked up): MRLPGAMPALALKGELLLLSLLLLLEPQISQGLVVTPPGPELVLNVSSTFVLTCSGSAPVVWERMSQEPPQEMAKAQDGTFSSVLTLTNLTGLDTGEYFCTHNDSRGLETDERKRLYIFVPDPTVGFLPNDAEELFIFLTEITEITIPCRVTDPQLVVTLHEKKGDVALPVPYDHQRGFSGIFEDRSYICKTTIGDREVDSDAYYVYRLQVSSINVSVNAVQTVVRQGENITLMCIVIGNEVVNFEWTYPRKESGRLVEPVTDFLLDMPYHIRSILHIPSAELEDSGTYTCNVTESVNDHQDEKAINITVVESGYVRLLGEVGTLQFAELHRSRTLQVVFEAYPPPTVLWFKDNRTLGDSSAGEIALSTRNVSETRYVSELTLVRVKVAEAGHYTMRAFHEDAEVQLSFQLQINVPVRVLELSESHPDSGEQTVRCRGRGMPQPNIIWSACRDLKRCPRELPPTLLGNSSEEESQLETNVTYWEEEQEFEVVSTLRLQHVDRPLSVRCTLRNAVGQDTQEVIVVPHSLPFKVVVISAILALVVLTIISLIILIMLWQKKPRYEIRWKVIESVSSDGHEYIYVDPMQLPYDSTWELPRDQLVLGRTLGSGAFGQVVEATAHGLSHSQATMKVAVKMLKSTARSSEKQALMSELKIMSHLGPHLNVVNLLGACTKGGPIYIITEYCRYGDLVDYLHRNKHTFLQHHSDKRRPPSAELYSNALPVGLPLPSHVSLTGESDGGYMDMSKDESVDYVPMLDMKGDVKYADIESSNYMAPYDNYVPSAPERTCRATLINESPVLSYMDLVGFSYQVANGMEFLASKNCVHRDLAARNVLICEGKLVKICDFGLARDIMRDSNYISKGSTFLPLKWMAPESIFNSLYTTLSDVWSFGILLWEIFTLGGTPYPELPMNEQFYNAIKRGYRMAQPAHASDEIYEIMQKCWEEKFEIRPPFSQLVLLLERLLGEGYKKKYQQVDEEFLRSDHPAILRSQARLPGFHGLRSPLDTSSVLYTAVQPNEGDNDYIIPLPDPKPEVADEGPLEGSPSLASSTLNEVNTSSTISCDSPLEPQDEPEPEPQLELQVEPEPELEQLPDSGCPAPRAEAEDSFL

[21] = molecular target: STK16 (human) (UniProt O75716)
[22] = molecular target: EPHA2 (human) (UniProt P29317)
[23] = molecular target: LATS2 (human) (UniProt Q9NRM7)
LATS2 (human), sequence (Q9NRM7 whole entry, looked up): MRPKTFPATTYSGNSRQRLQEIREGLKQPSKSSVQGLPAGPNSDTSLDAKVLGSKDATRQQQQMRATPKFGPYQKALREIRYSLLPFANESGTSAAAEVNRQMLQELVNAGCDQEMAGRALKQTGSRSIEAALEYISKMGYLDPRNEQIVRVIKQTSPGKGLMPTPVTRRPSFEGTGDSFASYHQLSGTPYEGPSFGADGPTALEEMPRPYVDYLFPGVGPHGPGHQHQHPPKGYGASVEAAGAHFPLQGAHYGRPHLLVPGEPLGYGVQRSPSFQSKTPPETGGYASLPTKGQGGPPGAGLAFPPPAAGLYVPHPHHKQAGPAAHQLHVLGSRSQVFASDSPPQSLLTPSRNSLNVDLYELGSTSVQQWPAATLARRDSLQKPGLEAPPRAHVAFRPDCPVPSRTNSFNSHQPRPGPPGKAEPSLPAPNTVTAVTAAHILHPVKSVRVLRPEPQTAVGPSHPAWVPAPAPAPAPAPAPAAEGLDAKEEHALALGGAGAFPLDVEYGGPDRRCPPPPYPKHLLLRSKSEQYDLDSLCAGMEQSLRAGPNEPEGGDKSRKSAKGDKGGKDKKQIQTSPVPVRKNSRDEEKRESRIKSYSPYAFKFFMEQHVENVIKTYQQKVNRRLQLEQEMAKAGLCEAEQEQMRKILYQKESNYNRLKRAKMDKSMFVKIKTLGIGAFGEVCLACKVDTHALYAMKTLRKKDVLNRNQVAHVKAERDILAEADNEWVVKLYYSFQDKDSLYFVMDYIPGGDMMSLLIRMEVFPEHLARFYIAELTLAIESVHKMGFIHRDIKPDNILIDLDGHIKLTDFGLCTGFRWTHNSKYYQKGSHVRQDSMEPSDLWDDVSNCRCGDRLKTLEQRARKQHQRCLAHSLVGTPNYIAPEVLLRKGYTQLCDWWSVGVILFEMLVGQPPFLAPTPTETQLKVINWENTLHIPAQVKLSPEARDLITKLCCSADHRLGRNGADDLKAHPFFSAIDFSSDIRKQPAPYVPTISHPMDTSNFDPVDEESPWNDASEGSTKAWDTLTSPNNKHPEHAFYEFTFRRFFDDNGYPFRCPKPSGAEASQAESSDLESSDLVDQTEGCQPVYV

[24] = molecular target: TEC (human) (UniProt P42680)
TEC (human), sequence (P42680 whole entry, looked up): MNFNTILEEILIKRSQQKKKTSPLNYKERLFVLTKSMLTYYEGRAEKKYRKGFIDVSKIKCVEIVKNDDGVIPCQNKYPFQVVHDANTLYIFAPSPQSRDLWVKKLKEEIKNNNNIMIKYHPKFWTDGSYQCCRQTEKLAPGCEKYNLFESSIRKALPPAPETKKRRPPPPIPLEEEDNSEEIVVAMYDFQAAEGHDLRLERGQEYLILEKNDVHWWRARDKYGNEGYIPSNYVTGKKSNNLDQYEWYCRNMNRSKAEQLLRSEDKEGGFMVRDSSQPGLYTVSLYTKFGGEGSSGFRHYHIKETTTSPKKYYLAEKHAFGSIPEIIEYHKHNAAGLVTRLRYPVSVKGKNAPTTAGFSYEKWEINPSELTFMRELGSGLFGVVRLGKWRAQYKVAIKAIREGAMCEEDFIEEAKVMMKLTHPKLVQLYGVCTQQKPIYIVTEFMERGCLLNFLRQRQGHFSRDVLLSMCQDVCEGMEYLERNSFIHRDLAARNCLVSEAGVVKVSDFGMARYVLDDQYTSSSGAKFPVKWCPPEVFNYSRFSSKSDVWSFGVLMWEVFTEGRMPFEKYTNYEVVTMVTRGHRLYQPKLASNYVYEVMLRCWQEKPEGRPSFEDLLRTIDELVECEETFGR

[25] = molecular target: PIK3CB (human) (UniProt P42338)
[26] = molecular target: PIP5K1A (human) (UniProt Q99755)
[27] = molecular target: EPHA5 (human) (UniProt P54756)
[28] = molecular target: RPS6KA4 KD1 (human) (UniProt O75676)
[29] = molecular target: EPHA1 (human) (UniProt P21709)
[30] = molecular target: TTK (human) (UniProt P33981)
[31] = molecular target: MAP2K5 (human) (UniProt Q13163)
[32] = molecular target: DSTYK (human) (UniProt Q6XUX3)
[33] = molecular target: TBK1 (human) (UniProt Q9UHD2)
[34] = molecular target: MAP2K7 (human) (UniProt O14733)
[35] = system: FLT3 (human), P36888 [R834Q]
[36] = molecular target: ROCK1 (human) (UniProt Q13464)
[37] = system: CPK1 (P.falciparum)
[38] = molecular target: DYRK2 (human) (UniProt Q92630)
[39] = molecular target: GRK7 (human) (UniProt Q8WTQ7)
[40] = molecular target: SNRK (human) (UniProt Q9NRH2)

AKT3 (human), sequence (Q9Y243 whole entry, looked up): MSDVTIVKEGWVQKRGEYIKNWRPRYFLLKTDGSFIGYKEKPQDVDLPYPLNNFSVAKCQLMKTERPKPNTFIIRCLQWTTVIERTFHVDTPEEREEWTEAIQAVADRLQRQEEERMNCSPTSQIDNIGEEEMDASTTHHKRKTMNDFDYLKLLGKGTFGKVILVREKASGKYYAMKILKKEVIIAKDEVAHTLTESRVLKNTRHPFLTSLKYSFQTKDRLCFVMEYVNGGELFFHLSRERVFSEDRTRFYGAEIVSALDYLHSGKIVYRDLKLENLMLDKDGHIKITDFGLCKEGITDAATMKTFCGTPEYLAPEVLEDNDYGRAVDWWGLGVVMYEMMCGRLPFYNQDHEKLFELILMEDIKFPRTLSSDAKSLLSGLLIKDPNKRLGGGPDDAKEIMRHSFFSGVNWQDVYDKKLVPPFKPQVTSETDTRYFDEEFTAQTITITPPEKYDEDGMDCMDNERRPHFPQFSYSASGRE

With `Cc1n[nH]c2ccc(-c3cncc(OC[C@@H](N)Cc4c[nH]c5ccccc45)c3)cc12` the kinase still bound, per cent of control [1] was 100%, the kinase still bound, per cent of control [2] was 3.8% and the kinase still bound, per cent of control [3] was 8%. It also gave a kinase still bound, per cent of control [4] of 100%, a kinase still bound, per cent of control [5] of 2.9% and a kinase still bound, per cent of control [6] of 100%. It also gave a kinase still bound, per cent of control [7] of 100%, a kinase still bound, per cent of control [8] of 6.6% and a kinase still bound, per cent of control [9] of 100%. It also gave a kinase still bound, per cent of control [10] of 12%, a kinase still bound, per cent of control [11] of 22% and a kinase still bound, per cent of control [12] of 1.9%. It also gave a kinase still bound, per cent of control [13] of 100%, a kinase still bound, per cent of control [14] of 100% and a kinase still bound, per cent of control [15] of 100%. For the same molecule, the kinase still bound, per cent of control [16] was 2%, the kinase still bound, per cent of control [17] was 100% and the kinase still bound, per cent of control [18] was 100%. The kinase still bound, per cent of control [19] was 100%, the kinase still bound, per cent of control [20] was 28% and the kinase still bound, per cent of control [21] was 100%. It also gave a kinase still bound, per cent of control [22] of 100%, a kinase still bound, per cent of control [23] of 0% and a kinase still bound, per cent of control [24] of 100%. It also gave a kinase still bound, per cent of control [25] of 100%, a kinase still bound, per cent of control [26] of 9.4% and a kinase still bound, per cent of control [27] of 100%. The kinase still bound, per cent of control [28] was 100%, the kinase still bound, per cent of control [29] was 100% and the kinase still bound, per cent of control [30] was 100%.
Molecule `CCN(CC)CCCCNc1ncc2cc(-c3cc(OC)cc(OC)c3)c(NC(=O)NC(C)(C)C)nc2n1` has a kinase still bound, per cent of control [1] of 100%, a kinase still bound, per cent of control [2] of 100% and a kinase still bound, per cent of control [3] of 100%. It also gave a kinase still bound, per cent of control [4] of 100%, a kinase still bound, per cent of control [5] of 100% and a kinase still bound, per cent of control [6] of 100%. The kinase still bound, per cent of control [7] was 100%, the kinase still bound, per cent of control [8] was 100% and the kinase still bound, per cent of control [12] was 100%. The kinase still bound, per cent of control [13] was 100%, the kinase still bound, per cent of control [14] was 100% and the kinase still bound, per cent of control [15] was 100%. For the same molecule, the kinase still bound, per cent of control [16] was 100%, the kinase still bound, per cent of control [17] was 100% and the kinase still bound, per cent of control [18] was 100%. For the same molecule, the kinase still bound, per cent of control [19] was 100%, the kinase still bound, per cent of control [20] was 38% and the kinase still bound, per cent of control [21] was 100%. For the same molecule, the kinase still bound, per cent of control [22] was 100%, the kinase still bound, per cent of control [23] was 100% and the kinase still bound, per cent of control [24] was 100%. It also gave a kinase still bound, per cent of control [26] of 100%, a kinase still bound, per cent of control [27] of 100% and a kinase still bound, per cent of control [28] of 100%. The kinase still bound, per cent of control [29] was 100% and the kinase still bound, per cent of control [30] was 100%.
For `COc1cc2ncnc(-n3nc(-c4ccccn4)nc3N)c2cc1OC`, the kinase still bound, per cent of control [2] was 100%, the kinase still bound, per cent of control [3] was 55% and the kinase still bound, per cent of control [31] was 1.1%. For the same molecule, the kinase still bound, per cent of control [4] was 6.2%, the kinase still bound, per cent of control [32] was 19% and the kinase still bound, per cent of control [5] was 100%. For the same molecule, the kinase still bound, per cent of control [6] was 15%, the kinase still bound, per cent of control [7] was 3.8% and the kinase still bound, per cent of control [8] was 99%. It also gave a kinase still bound, per cent of control [9] of 0.35%, a kinase still bound, per cent of control [33] of 24% and a kinase still bound, per cent of control [10] of 3%. For the same molecule, the kinase still bound, per cent of control [11] was 6.6%, the kinase still bound, per cent of control [12] was 37% and the kinase still bound, per cent of control [13] was 80%. The kinase still bound, per cent of control [14] was 44%, the kinase still bound, per cent of control [34] was 77% and the kinase still bound, per cent of control [15] was 33%. For the same molecule, the kinase still bound, per cent of control [16] was 100%, the kinase still bound, per cent of control [17] was 18% and the kinase still bound, per cent of control [35] was 22%. It also gave a kinase still bound, per cent of control [18] of 63%, a kinase still bound, per cent of control [19] of 63% and a kinase still bound, per cent of control [20] of 3.4%. It also gave a kinase still bound, per cent of control [36] of 21%, a kinase still bound, per cent of control [21] of 2.8% and a kinase still bound, per cent of control [22] of 27%. It also gave a kinase still bound, per cent of control [23] of 11%, a kinase still bound, per cent of control [24] of 100% and a kinase still bound, per cent of control [25] of 5%. The kinase still bound, per cent of control [26] was 6.4%, the kinase still bound, per cent of control [37] was 1.4% and the kinase still bound, per cent of control [27] was 19%. It also gave a kinase still bound, per cent of control [28] of 9.9%, a kinase still bound, per cent of control [29] of 14% and a kinase still bound, per cent of control [38] of 0.25%. The kinase still bound, per cent of control [39] was 11%, the kinase still bound, per cent of control [40] was 47% and the kinase still bound, per cent of control [30] was 20%.
`O=C(Nc1cccc(Nc2ncc(Br)c(NCCc3cnc[nH]3)n2)c1)N1CCCC1` showed a kinase still bound, per cent of control [2] of 21%, a kinase still bound, per cent of control [3] of 2.3% and a kinase still bound, per cent of control [31] of 0.6%. It also gave a kinase still bound, per cent of control [4] of 10%, a kinase still bound, per cent of control [32] of 36% and a kinase still bound, per cent of control [5] of 100%. It also gave a kinase still bound, per cent of control [6] of 100%, a kinase still bound, per cent of control [7] of 0.3% and a kinase still bound, per cent of control [8] of 95%. For the same molecule, the kinase still bound, per cent of control [9] was 89%, the kinase still bound, per cent of control [33] was 0.7% and the kinase still bound, per cent of control [10] was 0.3%. It also gave a kinase still bound, per cent of control [11] of 0.05%, a kinase still bound, per cent of control [12] of 3.8% and a kinase still bound, per cent of control [13] of 28%. It also gave a kinase still bound, per cent of control [14] of 100%, a kinase still bound, per cent of control [34] of 60% and a kinase still bound, per cent of control [15] of 7.8%. For the same molecule, the kinase still bound, per cent of control [16] was 48%, the kinase still bound, per cent of control [17] was 44% and the kinase still bound, per cent of control [35] was 7%. The kinase still bound, per cent of control [18] was 100%, the kinase still bound, per cent of control [19] was 0.75% and the kinase still bound, per cent of control [20] was 0%. The kinase still bound, per cent of control [36] was 0.6%, the kinase still bound, per cent of control [21] was 0.55% and the kinase still bound, per cent of control [22] was 60%. The kinase still bound, per cent of control [23] was 0%, the kinase still bound, per cent of control [24] was 47% and the kinase still bound, per cent of control [25] was 100%. It also gave a kinase still bound, per cent of control [26] of 1%, a kinase still bound, per cent of control [37] of 3.8% and a kinase still bound, per cent of control [27] of 92%. For the same molecule, the kinase still bound, per cent of control [28] was 2.1%, the kinase still bound, per cent of control [29] was 35% and the kinase still bound, per cent of control [38] was 3.4%. The kinase still bound, per cent of control [39] was 34%, the kinase still bound, per cent of control [40] was 100% and the kinase still bound, per cent of control [30] was 5%.
